These results are taken from patent US10829798B2, “DNA-linked enzyme-coupled assays” (THE REGENTS OF THE UNIVERSITY OF CALIFORNIA, priority 2014, dated 2020).

For experiment [1], the target named is T1, OleD (Streptomyces antibioticus, UniProt Q53685, P55A/R82V/R83E/T84P).
T1 construct: made in house; host or cells: PURExpress In Vitro Protein Synthesis Kit (NEB E6800L), cell-free transcription/translation, linear DNA with T7 promoter
The experiment can be described thus: FRET DLEnCA, cell-free transcription/translation-derived OleD, fluorescence readout. The experiment is classed as biochemical. As to conditions: all components present; chemical 1 mM, UDP-Glc 5 μM, FRET probe 250 nM. As to the method:
FIG. 3A-FIG. 3D. DNA-Linked Enzyme-Coupled Assay using cell-free transcription/translation system. A. UDP-Glc was titrated into reactions containing 250 nM FRET probe, TbGT, and a cell-free transcription/translation system. After 3 hours incubation at 37° C., probe was digested with MfeI and resulting digests were analyzed using fluorescent spectrometry (n=6, error bars=standard error). B. DNA encoding OleD (5 nM) was incubated in a cell-free transcription/translation system for 3 hours at 37° C., followed by the addition of UDP-Glucose (5 μM) and kaempferol (1 mM). After a subsequent incubation of 3 hours, TbGT and FRET probe (250 nM) were added. Following MfeI addition, fluorescence formation was monitored using fluorometry. […] Digests were analyzed using qPCR. […]
Assays were performed using 250 nM fluorescent probe (Sequence provided in FIG. 21) in place of the linear probe. Fluorescence was detected using a Tecan Safire^2 using the following settings: excitation wavelength 550 nm, emission wavelength 564 nm, excitation bandwidth 5 nm, emission bandwidth 5 nm, Gain (manual) 120, Number of reads 10, FlashMode High Sensitivity, Integration time 100 μs, lag time 0 μs, Z-position 12000 μm, Temperature 37° C. Development of fluorescence after MfeI addition was monitored over an 8 hour period. […]

For experiment [2], the target named is T1, OleD. The experiment in a line: qPCR DLEnCA, cell-free transcription/translation-derived OleD. The experiment is classed as biochemical. As for the experimental part: FIG. 4A-FIG. 4D. qPCR DLEnCA and substrate specificity studies. A. Chemicals used as substrates in subsequent assays: (i) known substrates of OleD; (ii) flavone library; (iii) known substrates of GT05 (UGT72B1 (Q9M156)) and GT06 (UGT89B1 (AT1 G73880)). B. DNA encoding OleD (5 nM) was incubated in a cell-free transcription/translation system for 3 hours at 37° C., followed by the addition of chemical (1 mM) and UDP-Glc (2 μM). After a subsequent incubation of 3 hours, TbGT and probe (0.2 nM) were added. After probe purification and MfeI digestion, probe integrity was identified using qPCR. Percent recovery of probe is reported (n=8; error bars=standard error). C. DNA encoding OleD (5 nM) was incubated for 3 hours at 37° C. in a cell-free transcription/translation system, followed by the addition of flavone (1 mM) and UDP-Glc (2 μM). After a subsequent incubation of 3 hours, TbGT and probe (0.2 nM) were added. After probe purification and MfeI addition, probe integrity was identified using qPCR. Percent recovery of probe is reported (n=8; error bars=standard error). D. DNA encoding OleD, GT05, or GT06 (5 nM) were incubated for 3 hours at 37° C. in a cell-free transcription/translation system, followed by the addition of chemical (1 mM) and UDP-Glc (2 μM). After a subsequent incubation of 3 hours, TbGT and probe (0.2 nM) were added. After probe purification and MfeI digestion, probe integrity was identified using qPCR. Percent recovery of probe is reported as a heat map (n=8) (specific recovery figures and percent error can be found in FIG. 16). *=p<0.05 vs. no chemical control.
PCR tubes were used for most reactions. All incubations were performed at 37° C. Assays were initiated upon the addition of linear DNA (5 nM final concentration) to 4 μl PURExpress Solution A and 3 μl PURExpress Solution B. Samples were incubated at 37° C. for 3 hours prior to addition of UDP-Glucose and chemical (1 mM final concentration) in DMSO. Samples were incubated for an additional 3 hours prior to addition of 1 unit T4 Phage β-glucosyltransferase containing 0.2 nM probe. Samples were incubated an additional 3 hours before DNA was purified using the Zymo DNA Clean and Concentrator Kit. Samples were digested overnight with MfeI prior to analysis. Concentration of intact DNA probe was identified using the iQ SYBR Green Supermix (1708880) with probe DNA as standards. qPCR was carried out on the Bio-Rad iQ5 Multicolor Real-Time PCR Detection System using primers P13 and P14 with the following temperatures; 94° C. 30 seconds followed by 40 cycles of 94° C. 10 seconds and 55° C. for 30 seconds. All results were compared to uncut probe DNA that had been carried through the process as negative controls (considered full recovery of probe).
The second DLEnCA workflow developed involved qPCR as a final readout (qPCR DLEnCA, FIG. 1—qPCR workflow). A linear fragment of DNA was modified to contain 5-hm-cytosines throughout. To determine a threshold for probe protection under conditions amenable to the qPCR DLEnCA workflow, UDP-Glc was titrated into mixtures of the cell-free transcription/translation system containing 5-hm-cytosine-modified DNA probe (0.2 nM probe DNA containing 0.1 μM modified 5-hm-cytosines) and TbGT. After digestion with the restriction enzyme MfeI, the amount of intact DNA probe was determined using qPCR (FIG. 3C). […] A threshold for protection was identified at a 20:1 molar ratio of UDP-Glc to total 5-hm-cytosine in probe DNA; this UDP-Glc amount was used as the starting concentration of UDP-Glc for all qPCR experiments. To test the feasibility of qPCR DLEnCA, OleD was again tested upon the substrate kaempferol (FIG. 3D), using DNA encoding a promoter and OleD as starting material. As expected, when all components of the assay were present, 27% of intact probe DNA was recovered. […]
On the technique in general: In qPCR the cycle at which signal appears reflects the starting amount.

SMILES strings stand for the structures.

T1 sequence (Q53685 other isoform, or with tags, fused parts or gaps P55A/R82V/R83E/T84P): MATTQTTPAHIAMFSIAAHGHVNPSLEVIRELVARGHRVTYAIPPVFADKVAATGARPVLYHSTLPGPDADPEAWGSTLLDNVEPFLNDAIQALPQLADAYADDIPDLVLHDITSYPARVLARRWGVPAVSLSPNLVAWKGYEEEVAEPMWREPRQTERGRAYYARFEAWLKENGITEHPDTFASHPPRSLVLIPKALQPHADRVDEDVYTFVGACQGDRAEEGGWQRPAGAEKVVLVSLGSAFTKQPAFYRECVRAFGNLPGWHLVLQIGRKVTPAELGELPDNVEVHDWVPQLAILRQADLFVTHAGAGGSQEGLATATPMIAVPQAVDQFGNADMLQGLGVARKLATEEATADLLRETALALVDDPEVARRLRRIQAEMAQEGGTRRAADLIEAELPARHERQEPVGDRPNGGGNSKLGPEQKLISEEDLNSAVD

Regarding `O=c1c(O)c(-c2ccc(O)cc2)oc2cc(O)cc(O)c12` [I, kaempferol], the “fluorescent reading after MfeI digestion of FRET probe” value in experiment [1] is 50 RFU. Besides, the “recovery of intact probe DNA” value in experiment [2] (OleD DNA 5 nM, chemical 1 mM, UDP-Glc 2 μM, probe 0.2 nM, low recovery = substrate glucosylated) was found to be 27%. The “activity of OleD with chemical” value in experiment [2] (tested against I, X, XI, XII, qPCR DLEnCA, verified with LCMS) is “showed activity”.
